Data taken from patent US11098063B2, “Diazabicyclic substituted imidazopyrimidines and their use for the treatment of breathing disorders” (Bayer Aktiengesellschaft, priority 2017, dated 2021).

What was measured:
Assay type in all cases: cell-based
[1] = target: T1, human TASK-3 (Homo sapiens (Human), UniProt Q9NPC2); experiment: Inhibition of recombinant TASK-3 in stably transfected CHO cells (voltage-sensitive dye, KCl depolarization); settings: depolarization by 40 mM potassium chloride
In short: (§1)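 Stably transfected CHO cells loaded with a voltage-sensitive membrane-potential dye were depolarized with 40 mM KCl in the presence of compound. IC50 is the concentration blocking half of the KCl-induced depolarization.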

[2] = target: T2, human TASK-1 (Homo sapiens (Human), UniProt O14649); experiment: Inhibition of recombinant TASK-1 in stably transfected CHO cells (voltage-sensitive dye, KCl depolarization); settings: depolarization by 40 mM potassium chloride
In short: as §1

[3] = target: T2, human TASK-1; experiment: Two-electrode voltage clamp analysis of human TASK-1 channel in Xenopus laevis oocytes; settings: human TASK-1 expressed in Xenopus laevis oocytes, room temperature
Experimental: (§2) B-1. In Vitro Electrophysiological Analysis of the Human TASK-1 and TASK-3 Channels Via Two-Electrode Voltage Clamp Technique in Xenopus laevis Oocytes
(§3) Xenopus laevis oocytes were selected as described elsewhere by way of illustration [Decher et al., FEBS Lett. 492, 84-89 (2001)]. Subsequently, the oocytes were injected with 0.5-5 ng of a cRNA solution coding for TASK-1 or TASK-3. For the electrophysiological analysis of the channel proteins expressed in the oocytes, the two-electrode voltage clamp technique [Stühmer, Methods Enzymol. 207, 319-339 (1992)] was used. The measurements were conducted as described [Decher et al., FEBS Lett. 492, 84-89 (2001)] at room temperature (21-22° C.) using a Turbo TEC 10CD amplifier (NPI), recorded at 2 kHz and filtered with 0.4 kHz. Substance administration was performed using a gravitation-driven perfusion system. Here, the oocyte is located in a measuring chamber and exposed to the solution stream of 10 ml/min. The level in the measuring chamber is monitored and regulated by sucking off the solution using a peristaltic pump.

[4] = target: T1, human TASK-3; experiment: Two-electrode voltage clamp analysis of human TASK-3 channel in Xenopus laevis oocytes; settings: human TASK-3 expressed in Xenopus laevis oocytes, room temperature
Experimental: as §2, §3

T2 sequence (O14649 whole entry): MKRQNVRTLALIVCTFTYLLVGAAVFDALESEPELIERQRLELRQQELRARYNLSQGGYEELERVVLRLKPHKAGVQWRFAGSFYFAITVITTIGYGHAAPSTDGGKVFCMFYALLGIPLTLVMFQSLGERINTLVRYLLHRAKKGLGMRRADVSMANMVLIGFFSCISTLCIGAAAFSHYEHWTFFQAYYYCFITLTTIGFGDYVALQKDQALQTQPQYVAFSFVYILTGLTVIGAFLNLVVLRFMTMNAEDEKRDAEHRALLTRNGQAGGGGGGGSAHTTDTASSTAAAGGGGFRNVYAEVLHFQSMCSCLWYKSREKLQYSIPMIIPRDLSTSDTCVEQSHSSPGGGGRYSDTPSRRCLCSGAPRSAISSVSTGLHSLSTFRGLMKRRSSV
T1 sequence (Q9NPC2 whole entry): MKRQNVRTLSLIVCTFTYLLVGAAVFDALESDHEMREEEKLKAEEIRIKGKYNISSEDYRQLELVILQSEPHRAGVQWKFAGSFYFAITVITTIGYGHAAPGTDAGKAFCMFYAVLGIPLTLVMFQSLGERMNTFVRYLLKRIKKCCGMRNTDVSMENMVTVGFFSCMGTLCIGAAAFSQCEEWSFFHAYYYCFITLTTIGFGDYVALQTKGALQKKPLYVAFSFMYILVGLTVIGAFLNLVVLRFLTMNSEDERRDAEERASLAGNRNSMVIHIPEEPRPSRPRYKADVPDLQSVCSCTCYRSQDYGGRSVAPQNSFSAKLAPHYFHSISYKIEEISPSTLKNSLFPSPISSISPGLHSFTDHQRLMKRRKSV

- IC50 [1]: 10 nM
- IC50 [2]: 1200 nM
- IC50 [3]: 17.9 ± 2.2 nM
- IC50 [4]: 367 ± 67.6 nM
Structure (SMILES): CC(C)c1ccc(-c2nc3ncccn3c2CN2CC3CCC2CN3C(=O)c2ncoc2C2CC2)cc1 (single isomer, unassigned) [Example 27, (5-Cyclopropyl-1,3-oxazol-4-yl)(5-{[2-(4-isopropylphenyl)imidazo[1,2-a]pyrimidin-3-yl]methyl}-2,5-diazabicyclo[2.2.2]oct-2-yl)methanone]
